US9688710B2, “Inhibitors of sodium glucose cotransporter 1” (LEXICON PHARMACEUTICALS, INC., priority 2012, dated 2017)

Assays:
[1] = target: Human sodium/glucose co-transporter type 1 (SGLT1) (Homo sapiens (Human), UniProt P13866); assay: In vitro human SGLT1 inhibition assay (14C-AMG uptake); format: cell-based; parameters: key to SGLT1 (human SGLT1 IC50): ***: a value less than 0.01 μM; **: a value less than 0.1 μM; *: a value less than 1 μM; —: a value not measured or exceeding μM; conditions: HEK293 cells expressing human HA-SGLT1, 14C-AMG uptake
Outline: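 Uptake of 14C-AMG (100 nCi) was measured by scintillation counting after 1–2 h at 37 °C, 5% CO2, with or without compound. The buffer was pH 7.3 with 140 mM NaCl, 1 mM CaCl2, 1 mM MgCl2 and 1 mg/mL BSA. Cells were a stable HEK293 line carrying HA-SGLT1 (human), plated overnight at 30,000 per well.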

[2] = target: Human sodium/glucose co-transporter type 2 (SGLT2) (Homo sapiens (Human), UniProt P31639); assay: In vitro human SGLT2 inhibition assay (14C-AMG uptake); format: cell-based; conditions: HEK293 cells expressing human HA-SGLT2, 14C-AMG uptake
Outline: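 Uptake of 14C-AMG (100 nCi) was followed in a stable HEK293 HA-SGLT2 line over 1-2 h at 37 °C with or without compound. Buffer: 140 mM NaCl, 10 mM HEPES, 5 mM Tris, 1 mg/mL BSA, pH 7.3. Readout was scintillation counting after washing.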

Human sodium/glucose co-transporter type 2 (SGLT2), sequence (P31639 whole entry): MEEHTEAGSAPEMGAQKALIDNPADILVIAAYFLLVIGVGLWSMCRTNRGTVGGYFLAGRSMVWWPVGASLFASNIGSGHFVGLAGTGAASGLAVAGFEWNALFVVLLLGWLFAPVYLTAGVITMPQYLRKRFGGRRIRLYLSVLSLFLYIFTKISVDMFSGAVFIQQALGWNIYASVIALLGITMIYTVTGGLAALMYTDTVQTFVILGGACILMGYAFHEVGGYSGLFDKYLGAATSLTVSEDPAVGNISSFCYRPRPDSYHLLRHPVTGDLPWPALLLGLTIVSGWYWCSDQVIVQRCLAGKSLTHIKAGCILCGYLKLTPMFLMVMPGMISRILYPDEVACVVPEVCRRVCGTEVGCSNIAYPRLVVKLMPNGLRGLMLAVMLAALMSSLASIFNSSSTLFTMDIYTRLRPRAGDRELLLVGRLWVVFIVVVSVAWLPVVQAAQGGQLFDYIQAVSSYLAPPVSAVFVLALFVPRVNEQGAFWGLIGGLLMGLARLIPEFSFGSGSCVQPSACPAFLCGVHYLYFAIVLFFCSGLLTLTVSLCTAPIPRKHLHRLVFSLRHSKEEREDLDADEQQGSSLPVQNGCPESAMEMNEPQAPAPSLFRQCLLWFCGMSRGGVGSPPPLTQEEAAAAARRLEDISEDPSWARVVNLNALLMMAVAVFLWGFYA
Human sodium/glucose co-transporter type 1 (SGLT1), sequence (P13866 whole entry): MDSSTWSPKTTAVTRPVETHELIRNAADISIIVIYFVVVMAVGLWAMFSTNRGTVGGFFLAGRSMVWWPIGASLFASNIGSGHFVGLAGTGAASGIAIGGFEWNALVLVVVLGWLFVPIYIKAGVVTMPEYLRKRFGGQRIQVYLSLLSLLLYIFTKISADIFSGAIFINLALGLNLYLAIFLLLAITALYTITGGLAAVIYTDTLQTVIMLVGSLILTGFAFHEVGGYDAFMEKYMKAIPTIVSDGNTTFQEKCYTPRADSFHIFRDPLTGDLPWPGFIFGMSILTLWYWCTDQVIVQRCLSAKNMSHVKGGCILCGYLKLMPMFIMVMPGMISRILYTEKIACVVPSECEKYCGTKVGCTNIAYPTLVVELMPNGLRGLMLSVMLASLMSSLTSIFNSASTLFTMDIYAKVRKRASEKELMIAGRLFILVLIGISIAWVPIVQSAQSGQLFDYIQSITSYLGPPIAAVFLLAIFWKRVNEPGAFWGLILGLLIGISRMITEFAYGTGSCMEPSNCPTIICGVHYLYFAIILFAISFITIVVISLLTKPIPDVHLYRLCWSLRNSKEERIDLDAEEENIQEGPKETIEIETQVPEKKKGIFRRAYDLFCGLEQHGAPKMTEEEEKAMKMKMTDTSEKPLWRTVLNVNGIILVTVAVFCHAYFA

SMILES | IC50 [1] [nM] | IC50 [2] [nM] | SGLT1 (human SGLT1 IC50) [1]
CS[C@H]1OC(c2ccc(C)c(Cc3ccc(OCCCNC(C)(CO)CO)cc3)c2)[C@H](O)[C@@H](O)[C@@H]1O (stereo partly drawn) [(3R,4R,5S,6R)-2-(3-(4-(3-((1,3-dihydroxy-2-methylpropan-2-yl)amino)propoxy)benzyl)-4-methylphenyl)-6-(methylthio)tetrahydro-2H-pyran-3,4,5-triol] | < 10 | < 10 | 
CS[C@H]1OC(c2ccc(C)c(Cc3ccc(OCCCNC(CO)CO)cc3)c2)[C@H](O)[C@@H](O)[C@@H]1O (stereo partly drawn) [(3R,4R,5S,6R)-2-(3-(4-(3-((1,3-dihydroxypropan-2-yl)amino)propoxy)benzyl)-4-methylphenyl)-6-(methylthio)tetrahydro-2H-pyran-3,4,5-triol] | < 10 | < 10 | 
CS[C@H]1OC(c2ccc(C)c(Cc3ccc(OCCCNCC(C)(C)CO)cc3)c2)[C@H](O)[C@@H](O)[C@@H]1O (stereo partly drawn) [(3R,4R,5S,6R)-2-(3-(4-(3-((3-hydroxy-2,2-dimethylpropyl)amino)propoxy)benzyl)-4-methylphenyl)-6-(methylthio)tetrahydro-2H-pyran-3,4,5-triol] | < 10 | < 10 | 
CS[C@H]1OC(c2ccc(C)c(Cc3ccc(CCCCCl)cc3)c2)[C@H](O)[C@@H](O)[C@@H]1O (stereo partly drawn) [(3R,4R,5S,6R)-2-(3-(4-(4-chlorobutyl)benzyl)-4-methylphenyl)-6-(methylthio)tetrahydro-2H-pyran-3,4,5-triol] | < 10 | < 10 | 
CS[C@H]1O[C@@H](c2ccc(C)c(Cc3ccc(/C=C/C(=O)N4CCN(C)CC4)cc3)c2)[C@H](O)[C@@H](O)[C@@H]1O [(E)-3-(4-(2-methyl-5-((2S,3R,4R,5S,6R)-3,4,5-trihydroxy-6-(methylthio)tetrahydro-2H-pyran-2-yl)benzyl)phenyl)-1-(4-methylpiperazin-1-yl)prop-2-en-1-one] | < 100 | < 10 | 
CS[C@H]1O[C@@H](c2ccc(C)c(Cc3ccc(/C=C/CCC(=O)NC(CO)(CO)CO)cc3)c2)[C@H](O)[C@@H](O)[C@@H]1O [(E)-N-(1,3-dihydroxy-2-(hydroxymethyl)propan-2-yl)-5-(4-(2-methyl-5-((2S,3R,4R,5S,6R)-3,4,5-trihydroxy-6-(methylthio)tetrahydro-2H-pyran-2-yl)benzyl)phenyl)pent-4-enamide] | < 10 | < 10 | 
CS[C@H]1O[C@@H](c2ccc(C)c(Cc3ccc(/C=C/CCC(=O)NC(C)(C)C(N)=O)cc3)c2)[C@H](O)[C@@H](O)[C@@H]1O [(E)-N-(1-amino-2-methyl-1-oxopropan-2-yl)-5-(4-(2-methyl-5-((2S,3R,4R,5S,6R)-3,4,5-trihydroxy-6-(methylthio)tetrahydro-2H-pyran-2-yl)benzyl)phenyl)pent-4-enamide] | < 10 | < 10 | 
CS[C@H]1O[C@@H](c2ccc(C)c(Cc3ccc(/C=C/CCC(=O)NC(C)(C)C(=O)N4CCN(C)CC4)cc3)c2)[C@H](O)[C@@H](O)[C@@H]1O [(E)-N-(2-methyl-1-(4-methylpiperazin-1-yl)-1-oxopropan-2-yl)-5-(4-(2-methyl-5-((2S,3R,4R,5S,6R)-3,4,5-trihydroxy-6-(methylthio)tetrahydro-2H-pyran-2-yl)benzyl)phenyl)pent-4-enamide] | < 10 | < 10 | 
CS[C@H]1O[C@@H](c2ccc(C)c(Cc3ccc(OCCCC(=O)N[C@@H](CC(N)=O)C(N)=O)cc3)c2)[C@H](O)[C@@H](O)[C@@H]1O [(S)-2-(4-(4-(2-methyl-5-((2S,3R,4R,5S,6R)-3,4,5-trihydroxy-6-(methylthio)tetrahydro-2H-pyran-2-yl)benzyl)phenoxy)butanamido)succinamide] | < 100 | < 10 | 
CS[C@H]1O[C@@H](c2ccc(Cl)c(Cc3ccc(OCC[C@H](N)C(=O)O)cc3)c2)[C@H](O)[C@@H](O)[C@@H]1O [(S)-2-amino-4-(4-(2-chloro-5-((2S,3R,4R,5S,6R)-3,4,5-trihydroxy-6-(methylthio)tetrahydro-2H-pyran-2-yl)benzyl)phenoxy)butanoic acid] |  | < 100 | —
CS[C@H]1O[C@@H](c2ccc(C)c(Cc3ccc(CCC[C@H](N)C(=O)O)cc3)c2)[C@H](O)[C@@H](O)[C@@H]1O [(S)-2-amino-5-(4-(2-methyl-5-((2S,3R,4R,5S,6R)-3,4,5-trihydroxy-6-(methylthio)tetrahydro-2H-pyran-2-yl)benzyl)phenyl)pentanoic acid] |  | < 100 | —
CS[C@H]1O[C@@H](c2ccc(Cl)c(Cc3ccc(OCC(=O)NCCCC[C@H](N)C(=O)O)cc3)c2)[C@H](O)[C@@H](O)[C@@H]1O [(S)-2-amino-6-(2-(4-(2-chloro-5-((2S,3R,4R,5S,6R)-3,4,5-trihydroxy-6-(methylthio)tetrahydro-2H-pyran-2-yl)benzyl)phenoxy)acetamido)hexanoic acid] | < 100 | < 10 | 
CS[C@H]1O[C@@H](c2ccc(Cl)c(Cc3ccc(OCCCC[C@H](N)C(=O)O)cc3)c2)[C@H](O)[C@@H](O)[C@@H]1O [(S)-2-amino-6-(4-(2-chloro-5-((2S,3R,4R,5S,6R)-3,4,5-trihydroxy-6-(methylthio)tetrahydro-2H-pyran-2-yl)benzyl)phenoxy)hexanoic acid] | < 100 | < 10 | 
CSC1OC(c2ccc(C)c(Cc3ccc(CCCC(=O)N4CCN(CCCN5CCN(C(=O)CCCc6ccc(Cc7cc(C8OC(SC)C(O)C(O)C8O)ccc7C)cc6)CC5)CC4)cc3)c2)C(O)C(O)C1O [(S,R,S,R,R)-1,1′-(4,4′-(propane-1,3-diyl)bis(piperazine-4,1-diyl))bis(4-(4-(2-methyl-5-((2S,3R,4R,5S,6R)-3,4,5-trihydroxy-6-(methylthio)tetrahydro-2H-pyran-2-yl)benzyl)phenyl)butan-1-one)] | < 10 | < 10 | 

Continued, values first:

IC50 [1] [nM] | IC50 [2] [nM] | SGLT1 (human SGLT1 IC50) [1] | SMILES
< 10 | < 10 |  | CS[C@H]1O[C@@H](c2ccc(C)c(Cc3ccc(CCCC(=O)NCCCC[C@H](N)C(=O)O)cc3)c2)[C@H](O)[C@@H](O)[C@@H]1O [(S)-2-amino-6-(4-(4-(2-methyl-5-((2S,3R,4R,5S,6R)-3,4,5-trihydroxy-6-(methylthio)tetrahydro-2H-pyran-2-yl)benzyl)phenyl)butanamido)hexanoic acid]
< 100 | < 10 |  | CS[C@H]1O[C@@H](c2ccc(C)c(Cc3ccc(CCCCC(=O)NCCCC[C@H](N)C(=O)O)cc3)c2)[C@H](O)[C@@H](O)[C@@H]1O [(S)-2-amino-6-(5-(4-(2-methyl-5-((2S,3R,4R,5S,6R)-3,4,5-trihydroxy-6-(methylthio)tetrahydro-2H-pyran-2-yl)benzyl)phenyl)pentanamido)hexanoic acid]
< 100 | < 10 |  | CS[C@H]1O[C@@H](c2ccc(C)c(Cc3ccc(/C=C/C[C@H](N)C(=O)O)cc3)c2)[C@H](O)[C@@H](O)[C@@H]1O [(S,E)-2-amino-5-(4-(2-methyl-5-((2S,3R,4R,5S,6R)-3,4,5-trihydroxy-6-(methylthio)tetrahydro-2H-pyran-2-yl)benzyl)phenyl)pent-4-enoic acid]
< 10 | < 10 |  | CS[C@H]1O[C@@H](c2ccc(C)c(Cc3ccc(CCCC(=O)NCCCN(C)CCCNC(=O)CCCc4ccc(Cc5cc([C@@H]6O[C@H](SC)[C@@H](O)[C@H](O)[C@H]6O)ccc5C)cc4)cc3)c2)[C@H](O)[C@@H](O)[C@@H]1O [(S,R,S,R,R)-N,N′-((methylazanediyl)bis(propane-3,1-diyl))bis(4-(4-(2-methyl-5-((2S,3R,4R,5S,6R)-3,4,5-trihydroxy-6-(methylthio)tetrahydro-2H-pyran-2-yl)benzyl)phenyl)butanamide)]
< 100 | < 10 |  | CS[C@H]1O[C@@H](c2ccc(C)c(Cc3ccc(CCCC(=O)NCCN(CCNC(=O)CCCc4ccc(Cc5cc([C@@H]6O[C@H](SC)[C@@H](O)[C@H](O)[C@H]6O)ccc5C)cc4)CCNC(=O)CCCc4ccc(Cc5cc([C@@H]6O[C@H](SC)[C@@H](O)[C@H](O)[C@H]6O)ccc5C)cc4)cc3)c2)[C@H](O)[C@@H](O)[C@@H]1O [(S,R,S,R,R,S,R,S,R,R)-N,N′,N″-(nitrilotris(ethane-2,1-diyl))tris(4-(4-(2-methyl-5-((2S,3R,4R,5S,6R)-3,4,5-trihydroxy-6-(methylthio)tetrahydro-2H-pyran-2-yl)benzyl)phenyl)butanamide)]
< 100 | < 10 |  | CS[C@H]1O[C@@H](c2ccc(C)c(Cc3ccc(/C=C/CC(C(=O)NC(C)(C)C(N)=O)C(=O)NC(C)(C)C(N)=O)cc3)c2)[C@H](O)[C@@H](O)[C@@H]1O [N1,N3-bis(1-amino-2-methyl-1-oxopropan-2-yl)-2-((E)-3-(4-(2-methyl-5-((2S,3R,4R,5S,6R)-3,4,5-trihydroxy-6-(methylthio)tetrahydro-2H-pyran-2-yl)benzyl)phenyl)allyl)malonamide]
< 100 | < 10 |  | CS[C@H]1O[C@@H](c2ccc(C)c(Cc3ccc(OCC(=O)NC(CO)(CO)CO)cc3)c2)[C@H](O)[C@@H](O)[C@@H]1O [N-(1,3-dihydroxy-2-(hydroxymethyl)propan-2-yl)-2-(4-(2-methyl-5-((2S,3R,4R,5S,6R)-3,4,5-trihydroxy-6-(methylthio)tetrahydro-2H-pyran-2-yl)benzyl)phenoxy)acetamide]
